Experimental findings from US11161811B2, “Process for preparing Mannich base quaternary ammonium salt high-temperature resistant corrosion inhibitor and applications thereof” (SOUTHWEST PETROLEUM UNIVERSITY, priority 2018, dated 2021) are described below.

Data set [1] in a line: 4 h corrosion weight loss test (corrosion inhibition performance). The note with it: P110 carbon steel, 20% hydrochloric acid, 90° C., 1000 ppm corrosion inhibitor. As for the experimental part:
The corrosion inhibition performance of corrosion inhibitors in the embodiments 1 to 4 is determined by a 4 h corrosion weight loss test at 90° C. using 20% hydrochloric acid as a corrosive medium and P110 carbon steels. The amount of corrosion inhibitors is 1000 ppm.

The conditions of data set [2]: 0.1 g corrosion inhibitor in 200 mL of 20% hydrochloric acid solution, stirred, dissolution observed.
The nature of data set [3]: Compatibility with 20% hydrochloric acid system containing iron ion stabilizer, clay stabilizer and discharge aiding agent. The format is physicochemical. The conditions noted are these: 0.1 g in 20% hydrochloric acid system with citric acid, potassium chloride and OP-10 or fluorocarbon surfactant; 90° C. The protocol:
The water solubility of the corrosion inhibitor prepared by Embodiments 1 to 4 and its compatibility with the system containing the iron ion stabilizer, clay stabilizer and discharge aiding agent under 90° C. are determined. The process is as follows: weigh 0.1 g of the corrosion inhibitor respectively, and dissolve in 200 mL of 20% hydrochloric acid solution, stir and observe its dissolution. Prepare 20% hydrochloric acid solution system adding with iron ion stabilizer citric acid, clay stabilizer potassium chloride and discharge aiding agent OP-10 or fluorocarbon surfactant, respectively, and then weigh 0.1 g of the corrosion inhibitor and add them to the 20% hydrochloric acid solution system, to observe the compatibility.

Regarding `O=C(/C=C/c1ccccc1)CC(c1cccc(-c2cccs2)c1)[N+](Cc1ccccc1)(Cc1ccccc1)Cc1ccccc1` (stereo not drawn) [Embodiment 1], in data set [1], the Inhibition rate is listed as 98.63%. Further, the Water solubility entry in data set [2] was “Soluble reddish brown”. In addition, the Compatibility entry in data set [3] was “Uniform and transparent, no”.

Turning to `O=C(CC(=C(c1ccccc1)c1ccccc1)c1ccccc1)CC(/C=C/c1ccccc1)[N+]1(Cc2ccc3ccccc3c2)CCCCC1C(c1ccccc1)c1ccccc1` (stereo not drawn) [Embodiment 2], in data set [1], the Inhibition rate came out at 97.96%. The Water solubility entry in data set [2] is reported as “Soluble reddish brown”. Besides, the Compatibility result in data set [3] is “Uniform and transparent, no”.

Turning to `O=C(/C=C/c1ccccc1)CC(/C=C/c1ccccc1)[N+]1(C(c2ccccc2)(c2ccccc2)c2ccccc2)C=Cc2ccccc21` (stereo not drawn) [Embodiment 3], the Inhibition rate in data set [1] was found to be 98.59%. Moreover, in data set [2], the Water solubility result is “Soluble reddish brown”. For the same compound, in data set [3], the Compatibility entry is “Uniform and transparent, no”.

As to `CC(O)C[N+](Cc1ccc2ccccc2c1)(CC(C)O)C(CC(=O)CC(=C(c1ccccc1)c1ccccc1)c1ccccc1)c1cccc(-c2cccs2)c1` (stereo not drawn) [Embodiment 4], in data set [1], the Inhibition rate was determined as 98.41%. Further, the Water solubility result in data set [2] is given as “Soluble reddish brown”. Also, the Compatibility result in data set [3] is “Uniform and transparent, no”.
